# Laboratory results: patent US20070191459A1, “Use of Benzo-Heteroaryl Sulfamide Derivatives for Lowering Lipids and Lowering Blood Glucose Levels” (priority 2006, published 2007)
# System: db/db mice
# Assay: Diabetic db/db Mouse In Vivo Assay
# Conditions: female db/db mice
# From the text: Db/db mice are known in the art to be susceptible to Type II diabetes (Sharma K, McCue P, Dunn S R. Am J Physiol Renal Physiol. 2003 June; 284(6):F1138-44). The Db/db mice are also known in the art to be a useful model for dylipidemia.
# Female db/db mice (C57BL/6J-Lep^db/db, Jackson Laboratories, Bar Harbor, Me., USA) were received at 8 weeks of age and single-housed and fed with regular chow diet. Blood was collected by tail puncture and glucose was monitored with a glucometer (OneTouch Basic, Lifescan, Newtown, Pa.).
# Mice at 10 weeks of age were randomized into treatment groups based on glucose values (first criterion, average of 250 mg/dl) and body weight (second criterion, average of 37 gram). The mice were orally gavaged once daily (0.2 ml at 1500-1700 hour) with vehicle control (0.5% methylcellulose, pH7.4) and vehicle containing test compound (300 mg/kg). On day 11, the mice were fasted for 4 hr during light cycle (food was removed 0600-1000 hour) and blood glucose levels were measured through tail puncture with a glucometer at 1000 hour. The mice were then anaesthetized with sodium pentobarbital (1 ml/kg, i.p, Sleepaway, Fort Dodge, Iowa) and blood was drawn via cardiac puncture and collected into heparinized tubes.
# White adipose tissue (WAT) (retroperitoneal fat) and skeletal muscle (gastrocnemius and soleus muscle) were dissected and weighed. Plasma samples were obtained by centrifuge at 2,000 g for 15 minutes at 4° C. and subjected to measurement of insulin, HDL cholesterol and triglyceride.
# Data shown below are expressed as the mean and standard error calculated using 9-10 mice per treatment group. The 2 tailed Student's t-Tests were used for statistic analysis. All animal studies complied with the guideline of the Institutional Animal Care and Use Committee.
# [1] = 300 mg/kg oral gavage once daily, day 11, plasma, mean ± standard error
# [2] = 300 mg/kg oral once daily, in words
compound,measurement,setting,value
"NS(=O)(=O)NCc1csc2ccccc12 [Compound #1, N-(benzo[b]thien-3-ylmethyl)-sulfamide]",Blood Glucose,"300 mg/kg oral gavage once daily, day 11, 4 hr fasted, mean ± standard error, 9-10 mice",350 ± 19 mg/dL
same,HDL Cholesterol,[1],52.6 ± 1.8 mg/dL
same,Triglycerides,[1],149.2 ± 15.8 mg/dL
same,Insulin levels,"300 mg/kg oral gavage once daily, day 11, plasma, vehicle 11.9±2.2",14.6±3.0
same,Skeletal Muscle Weight,"300 mg/kg oral gavage once daily, day 11, gastrocnemius and soleus muscle, mean ± standard error",0.155 ± 0.004 g
same,Retroperitoneal Fat Weight,"300 mg/kg oral gavage once daily, day 11, mean ± standard error",1.29 ± 0.09 g
same,blood glucose levels as compared to vehicle treated mice,[2],significantly lower
same,blood triglyceride levels as compared to vehicle treated mice,[2],decreased
same,plasma HDL cholesterol levels as compared to vehicle treated mice,[2],significantly increased
same,skeletal muscle mass versus vehicle,[2],increased skeletal muscle mass
same,fat to lean mass ratio,"300 mg/kg oral once daily, versus vehicle, in words",significant decrease
